{"source": "patent US12357654B2", "about": "“Application of glucan in preparation of drug” (Qingdao Conson Pharmaceutical Co., Ltd., priority 2019, dated 2025)", "key": {"[1]": {"test_system": "immune cell subpopulations in blood and tumors", "assay": "Flow cytometric analysis of immune cell subpopulations in blood and tumors, B16 model with anti-PD-1 antibody", "type": "in vivo, C57BL/6J mice", "experimental": "(§1) A cell suspension of 3×10^5 mouse melanoma cell line B16 (presented by PerkinElmer) was injected subcutaneously into C57BL/6J mice (female, 6-8 weeks old, purchased from Jinan Pengyue Experimental Animal Company). The administration experiments were performed about 4 days after implantation when B16 tumors have grown to be palpable. Mice were divided into four groups and treated with vehicle or β-1,3/1,6-glucan (4 mg/kg, i.v., twice a week) alone, or in combination with anti-PD-1 antibody (anti-mouse PD-1 antibody purchased from BioxCell, 200 μg per mouse, i.v., once a week). Tumor volumes were evaluated and tumor weights were recorded. After sacrifice of mice, blood and tumor samples were collected for flow cytometric analysis.\nBlood samples were collected by cardiac puncture, collected into EDTA-anticoagulation tubes. 50 μl of whole blood was taken for blood analysis, 50 μl of whole blood was taken for erythrocyte lysis (erythrocyte lysis buffer, Meltenyi), and the remaining whole blood was centrifuged at 3500 rpm for 7 min and the plasma was taken and stored at −80° C. Spleens and thymus were weighed for recording. Subcutaneous tumors of mice, about 0.2-0.5 g of tumors tissues, were taken, and single cell suspensions from the tumor samples were obtained by Mouse Tumor Dissociation Kit (Meltenyi). The blood cells after erythrocyte lysis as well as the dissociated tumor cell suspensions were subjected to subsequent processing, as well as flow cytometric detection\nThe single-cell suspensions were blocked with blocking buffer (20% FBS, 1:100 CD16/CD32 antibody and 1:100 rat IgG) for 20 min, and incubated and stained with the corresponding immune cell surface protein antibodies (CD11 b-PE, CD4-BV510, CD8-PerCP-Cy5.5, CD19-APC, CD3-FITC, CD206-PE-Cy7, Ly6C-APC) for 30 minutes at 4° C. Analysis of immune cell population ratios was performed by FACS\nArial III (BD Biosciences). The specific procedure was delineating the cell population in the FSC/SSC quadrant, delineating single cell population by FSC-H and FSC-A, and delineating corresponding immune cells by immune cell surface markers, and calculating the cell ratio or relative concentration.\n(§2) Combination treatment also upregulates pro-inflammatory monocyte-derived macrophages (CD11b+Ly6Chi, FIG. 1E) in the peripheral blood. […] In addition, it was detected that the combination application of β-1,3/1,6-glucan and PD-1 antibodies enhances the percentage of CD4 and CD8 T cells in the blood and tumor (FIG. 2). It was shown that β-1,3/1,6-glucan and anti-PD-1 antibodies synergistically increase tumor infiltration of pro-inflammatory macrophages, decrease the percentage of immunosuppressive TAM, and increase the ratio of acquired immune cells T and B cells, resulting in building up a more pro-inflammatory and anti-tumoral tumor microenvironment."}, "[2]": {"test_system": "CD4, CD8 and CD19 cells in peripheral blood", "assay": "Relative CD4, CD8, CD19 cell concentration in peripheral blood by FACS, B16 model after radiotherapy", "type": "in vivo, C57BL/6J mice", "settings": "8 mg/kg β-1,3/1,6-glucan after radiotherapy, FIG. 16", "experimental": "On day 14, blood was taken from the heart after animals were sacrificed, and placed in EDTA-anticoagulation tubes. After mixing, 50 μl of whole blood was taken. 5 μl of GFP microspheres were added to each sample for erythrocyte lysis.\n(§3) The single-cell suspensions were blocked with blocking buffer (20% FBS, 1:100 CD16/CD32 antibody and 1:100 rat IgG) for 20 min, and incubated and staining with the corresponding immune cell surface protein antibodies (CD4-BV510, CD8-PerCP-Cy5.5, CD19-APC) for 30 minutes at 4° C. Analysis of immune cell population ratios was performed by FACS Anal III (BD Biosciences). The specific procedure was delineating the cell population in the FSC/SSC quadrant, delineating the single cell population by FSC-H and FSC-A, and delineating the corresponding immune cells by immune cell surface markers, and calculating the relative immune cell concentration."}, "[3]": {"test_system": "lymphocytes in peripheral blood", "assay": "Relative lymphocyte concentration in peripheral blood by FACS, B16 model with anti-PD-1 antibody", "type": "in vivo, C57BL/6J mice", "settings": "8 mg/kg β-1,3/1,6-glucan combined with PD-1 antibody, versus PD-1 antibody alone; FIG. 4", "experimental": "A cell suspension of 3×10^5 mouse melanoma cell line B16 (presented by PerkinElmer) was injected subcutaneously into C57BL/6J mice (female, 6-8 weeks old, purchased from Jinan Pengyue Experimental Animal Company). The administration experiments were performed about 4 days after implantation when B16 tumors have grown to be palpable. […] Tumor volumes were evaluated and tumor weights were recorded. After sacrifice of mice, blood and tumor samples were collected for flow cytometric analysis.\nThe experimental method was the same as in Example 1. On day 14, blood was taken from the heart after animal sacrificed, and placed in EDTA-anticoagulation tubes. After mixing, 50 μl of whole blood was taken. 5 μl of GFP microspheres were added to each sample for erythrocyte lysis.\nas §3, with “CD8-PerCP-Cy5.5, CD19-APC, CD3-FITC)” for “CD8-PerCP-Cy5.5, CD19-APC)”, “FACS Arial” for “FACS Anal”"}, "leukocytes": {"test_system": "leukocytes", "assay": "Immune cell concentration by hematology analyzer, B16 model after radiotherapy", "type": "in vivo, C57BL/6J mice", "settings": "local radiotherapy 10 Gy, glucan by tail vein once a week, FIGS. 8-15", "experimental": "A cell suspension of 3×10^5 mouse melanoma cell line B16 (presented by PerkinElmer) was injected subcutaneously into C57BL/6J mice (female, 6-8 weeks old, purchased from Jinan Pengyue Experimental Animal Company)(Overwijk & Restifo, 2001). About 5 days after tumor implantation, local radiotherapy (tumor injection area, 10 Gy) was applied. On day 6 and day 14, vehicle or β-1,3/1,6-glucan was administered (tail vein injection, once a week), and on day 17, after the animals were sacrificed, tumor weight was measured. Blood was taken from the heart after animal sacrificed, placed into EDTA-anticoagulation tubes. After mixing, 50 μl of whole blood was taken and the immune cell concentration was measured by a hematology analyzer."}, "[4]": {"test_system": "mouse melanoma cell line B16", "assay": "B16 syngeneic tumor model with carboplatin chemotherapy: tumor volume, tumor weight", "type": "in vivo, C57BL/6J mice", "settings": "BG136 4 mg/kg tail vein with carboplatin 30 mg/kg i.p. twice a week; sacrificed day 15; FIGS. 17-21", "experimental": "(§4) A cell suspension of 3×10^5 mouse melanoma cell line B16 (presented by PerkinElmer) was injected subcutaneously into C57BL/6J mice (females, 6-8 weeks old, purchased from Jinan Panyue Experimental Animal Company) (Overwijk & Restifo, 2001). About 2 days after tumor implantation, carboplatin (30 mg/kg, twice a week) was injected intraperitoneally and BG136 (4 mg/kg) or lentinan LNT (2 mg/kg) was injected via the tail vein, and tumor volume were measured during administration, and on day 15, after animals were sacrificed, tumor weight was measured. Blood was taken from the heart after animals were sacrificed, placed in EDTA-anticoagulation tubes. After mixing, 50 μl of whole blood was taken and the immune cell concentration was measured by a hematology analyzer."}, "[5]": {"test_system": "mouse melanoma cell line B16", "assay": "B16 syngeneic tumor model after local radiotherapy: tumor volume, tumor weight", "type": "in vivo, C57BL/6J mice", "settings": "local radiotherapy 10 Gy day 5; glucan by tail vein once a week (day 6, day 14); sacrificed day 17; FIGS. 5-7", "experimental": "A cell suspension of 3×10^5 mouse melanoma cell line B16 (presented by PerkinElmer) was injected subcutaneously into C57BL/6J mice (female, 6-8 weeks old, purchased from Jinan Pengyue Experimental Animal Company)(Overwijk & Restifo, 2001). About 5 days after tumor implantation, local radiotherapy (tumor injection area, 10 Gy) was applied. On day 6 and day 14, vehicle or β-1,3/1,6-glucan was administered (tail vein injection, once a week), during this period, tumor volume and mouse body weight were measured, and on day 17, after the animals were sacrificed, tumor weight was measured."}, "leukocytes and platelets": {"test_system": "leukocytes and platelets", "assay": "Leukocytes and platelets by hematology analyzer, B16 model with carboplatin chemotherapy", "type": "in vivo, C57BL/6J mice", "settings": "BG136 4 mg/kg tail vein with carboplatin 30 mg/kg i.p. twice a week; day 15; FIGS. 17-21", "experimental": "as §4"}, "platelets": {"test_system": "platelets", "assay": "Platelet concentration by hematology analyzer, B16 model with anti-PD-1 antibody", "type": "in vivo, C57BL/6J mice", "settings": "blood day 14, FIG. 3"}, "[6]": {"test_system": "mouse melanoma cell line B16", "assay": "B16 syngeneic tumor model, β-1,3/1,6-glucan with anti-PD-1 antibody: tumor volume, tumor weight, body weight", "type": "in vivo", "experimental": "as §1, §2"}, "[7]": {"settings": "combination with PD-1 antibody, FIG. 2"}, "[8]": {"settings": "combination with anti-PD-1 antibody, flow cytometry, FIG. 1D"}, "[9]": {"settings": "combination with anti-PD-1 antibody, within the tumor, FIG. 1F"}}, "data": [{"substance": "β-1,3/1,6-glucan", "values": [{"measurement": "percentage of immunosuppressive tumor-associated macrophages TAM (CD11b+CD206+)", "setting": "[1]; combination treatment compared with anti-PD-1 antibody alone, within the tumor, FIG. 1G", "value": "reduced"}, {"measurement": "percentage of CD4 T cells in the blood and tumor", "setting": "[1]; [7]", "value": "enhances"}, {"measurement": "percentage of CD8 T cells in the blood and tumor", "setting": "[1]; [7]", "value": "enhances"}, {"measurement": "pro-inflammatory monocyte-derived macrophages (CD11b+Ly6Chi) in the peripheral blood", "setting": "[1]; combination with anti-PD-1 antibody, FIG. 1E", "value": "upregulates"}, {"measurement": "percentage of CD11b+ cells in the blood", "setting": "[1]; [8]", "value": "decreases"}, {"measurement": "percentage of CD19+ cells in the blood", "setting": "[1]; [8]", "value": "increases"}, {"measurement": "tumor infiltration of myeloid cells (CD11b+)", "setting": "[1]; [9]", "value": "more infiltration"}, {"measurement": "tumor infiltration of pro-inflammatory macrophages (CD11b+Ly6Chi)", "setting": "[1]; [9]", "value": "more infiltration"}, {"measurement": "cell concentration of CD4 after radiotherapy", "setting": "[2]", "value": "increases"}, {"measurement": "cell concentration of CD8 after radiotherapy", "setting": "[2]", "value": "increases"}, {"measurement": "cell concentration of CD19 after radiotherapy", "setting": "[2]", "value": "increases"}, {"measurement": "relative concentration of CD3 in blood", "setting": "[3]", "value": "further increase"}, {"measurement": "relative concentration of CD4 in blood", "setting": "[3]", "value": "further increase"}, {"measurement": "relative concentration of CD8 in blood", "setting": "[3]", "value": "further increase"}, {"measurement": "relative concentration of CD19 in blood", "setting": "[3]", "value": "further increase"}, {"measurement": "concentration of immune cells in blood after radiotherapy", "setting": "leukocytes", "value": "increasing the concentration of immune cells"}, {"measurement": "tumor suppressive effect in combination with carboplatin", "setting": "[4]", "value": "enhances the tumor suppressive effect of carboplatin"}, {"measurement": "anti-tumor effect in combination with radiotherapy (tumor volume, tumor weight)", "setting": "[5]", "value": "enhances the anti-tumor effect of radiotherapy"}, {"measurement": "decrease in platelets after carboplatin administration", "setting": "leukocytes and platelets", "value": "reverses"}, {"measurement": "immune response / immunosuppression after carboplatin administration (immune cell concentration)", "setting": "leukocytes and platelets", "value": "reverses the immunosuppression"}, {"measurement": "platelet concentration", "setting": "platelets; single agent alone", "value": "does not affect"}, {"measurement": "platelet concentration, platelet-lowering side effect of PD-1 antibody", "setting": "platelets; β-1,3/1,6-glucan in combination with PD-1 antibody", "value": "reverses the platelet-lowering side effect"}, {"measurement": "body weight and death of mice during treatment", "setting": "[6]; combination of β-1,3/1,6-glucan 4 mg/kg and anti-PD-1 antibody 200 μg/mouse, FIG. 1C", "value": "no significant changes"}, {"measurement": "tumor growth inhibition, combination versus single treatment", "setting": "[6]; β-1,3/1,6-glucan 4 mg/kg i.v. twice a week combined with anti-PD-1 antibody 200 μg/mouse i.v. once a week, FIG. 1A, 1B", "value": "more effectively inhibits tumor growth than single treatment"}, {"measurement": "anti-PD-1 antibody-induced tumor regression", "setting": "[6]; β-1,3/1,6-glucan 4 mg/kg i.v. twice a week combined with anti-PD-1 antibody 200 μg/mouse i.v. once a week, sacrificed day 14, FIG. 1A, 1B", "value": "enhances anti-PD-1 antibody-induced tumor regression"}]}]}
